Experimental data from the NIST ThermoML archive (doi:10.1016/j.jct.2017.03.032).

Test: wn = mass fraction of the nth substance listed
Details: Gas, Burnett expansion method

F/C=C/C(F)(F)F [trans-1,3,3,3-tetrafluoropropene] + CC(C)C
Details | mass density [kg/m3]
315.14 K, 227.3 kPa, w1 = 0.65 | 7.7977
315.14 K, 297.2 kPa, w1 = 0.65 | 10.348
315.14 K, 301.4 kPa, w1 = 0.75 | 11.3213
315.14 K, 386 kPa, w1 = 0.65 | 13.7325
315.14 K, 392.5 kPa, w1 = 0.75 | 15.0241
315.14 K, 497.8 kPa, w1 = 0.65 | 18.2238
315.14 K, 506.8 kPa, w1 = 0.75 | 19.9379
315.14 K, 642.7 kPa, w1 = 0.75 | 26.4588
315.15 K, 173.5 kPa, w1 = 0.65 | 5.8759
315.15 K, 173.8 kPa, w1 = 0.7 | 6.1345
315.15 K, 175.6 kPa, w1 = 0.75 | 6.4285
315.15 K, 190.1 kPa, w1 = 0.85 | 7.5778
315.15 K, 229.1 kPa, w1 = 0.7 | 8.1409
315.15 K, 230.4 kPa, w1 = 0.75 | 8.531
315.15 K, 249.3 kPa, w1 = 0.85 | 10.0562
315.15 K, 299.1 kPa, w1 = 0.7 | 10.8034
315.15 K, 325.7 kPa, w1 = 0.85 | 13.3452
315.15 K, 390.1 kPa, w1 = 0.7 | 14.3368
315.15 K, 422.3 kPa, w1 = 0.85 | 17.7101
315.15 K, 497.7 kPa, w1 = 0.7 | 19.0258
315.15 K, 539.7 kPa, w1 = 0.85 | 23.5026
315.16 K, 185.3 kPa, w1 = 0.8 | 7.0584
315.16 K, 317.7 kPa, w1 = 0.8 | 12.4305
315.16 K, 333.2 kPa, w1 = 0.9 | 14.2331
315.16 K, 412.2 kPa, w1 = 0.8 | 16.4962
315.16 K, 529.7 kPa, w1 = 0.8 | 21.8918
315.17 K, 148.1 kPa, w1 = 0.9 | 6.0901
315.17 K, 194.6 kPa, w1 = 0.9 | 8.0819
315.17 K, 243 kPa, w1 = 0.8 | 9.3669
315.17 K, 255.2 kPa, w1 = 0.9 | 10.7253
315.17 K, 432.8 kPa, w1 = 0.9 | 18.8881
315.17 K, 551.9 kPa, w1 = 0.9 | 25.0657
320.12 K, 779.8 kPa, w1 = 0.8 | 33.8752
320.13 K, 286 kPa, w1 = 0.8 | 10.922
320.13 K, 373.2 kPa, w1 = 0.8 | 14.4942
320.13 K, 483.3 kPa, w1 = 0.8 | 19.2347
320.13 K, 616.7 kPa, w1 = 0.8 | 25.5259
320.14 K, 165.2 kPa, w1 = 0.8 | 6.2018
320.14 K, 168.8 kPa, w1 = 0.9 | 6.8698
320.14 K, 218.3 kPa, w1 = 0.8 | 8.2301
320.14 K, 221.7 kPa, w1 = 0.9 | 9.1166
320.14 K, 290.4 kPa, w1 = 0.9 | 12.0982
320.14 K, 378.8 kPa, w1 = 0.9 | 16.0551
320.14 K, 491 kPa, w1 = 0.9 | 21.3061
320.14 K, 621.3 kPa, w1 = 0.9 | 28.2744
320.15 K, 148.8 kPa, w1 = 0.7 | 5.1243
320.15 K, 195.8 kPa, w1 = 0.7 | 6.8002
320.15 K, 256.8 kPa, w1 = 0.7 | 9.0242
320.15 K, 335.6 kPa, w1 = 0.7 | 11.9756
320.15 K, 340.3 kPa, w1 = 0.65 | 11.7766
320.15 K, 435.2 kPa, w1 = 0.7 | 15.8926
320.15 K, 441.3 kPa, w1 = 0.65 | 15.6283
320.15 K, 556 kPa, w1 = 0.7 | 21.0901
320.15 K, 569.2 kPa, w1 = 0.65 | 20.7395
320.16 K, 152 kPa, w1 = 0.65 | 5.039
320.16 K, 154 kPa, w1 = 0.75 | 5.5344
320.16 K, 199.9 kPa, w1 = 0.65 | 6.687
320.16 K, 262 kPa, w1 = 0.65 | 8.8741
320.16 K, 266.1 kPa, w1 = 0.75 | 9.7466
320.16 K, 347.7 kPa, w1 = 0.75 | 12.9343
320.16 K, 577.4 kPa, w1 = 0.75 | 22.7785
320.16 K, 730.8 kPa, w1 = 0.75 | 30.2287
320.17 K, 203 kPa, w1 = 0.75 | 7.3444
320.17 K, 451.9 kPa, w1 = 0.75 | 17.1645
320.19 K, 162.2 kPa, w1 = 0.85 | 6.3277
320.19 K, 214.1 kPa, w1 = 0.85 | 8.3973
320.19 K, 279.4 kPa, w1 = 0.85 | 11.1439
320.19 K, 364.7 kPa, w1 = 0.85 | 14.7884
320.19 K, 472.3 kPa, w1 = 0.85 | 19.6252
320.19 K, 605 kPa, w1 = 0.85 | 26.0438
320.19 K, 764.8 kPa, w1 = 0.85 | 34.5619
325.1 K, 181 kPa, w1 = 0.85 | 6.9723
325.1 K, 219.4 kPa, w1 = 0.75 | 7.845
325.1 K, 287.7 kPa, w1 = 0.75 | 10.4108
325.1 K, 311.6 kPa, w1 = 0.85 | 12.2787
325.1 K, 374.7 kPa, w1 = 0.75 | 13.8158
325.1 K, 406.4 kPa, w1 = 0.85 | 16.2947
325.1 K, 488 kPa, w1 = 0.75 | 18.3343
325.1 K, 523.6 kPa, w1 = 0.85 | 21.624
325.1 K, 621.5 kPa, w1 = 0.75 | 24.3306
325.1 K, 668.2 kPa, w1 = 0.85 | 28.6964
325.1 K, 786.7 kPa, w1 = 0.75 | 32.2887
325.1 K, 844.6 kPa, w1 = 0.85 | 38.0818
325.11 K, 166.4 kPa, w1 = 0.7 | 5.6568
325.11 K, 167.1 kPa, w1 = 0.75 | 5.9115
325.11 K, 218.6 kPa, w1 = 0.7 | 7.5069
325.11 K, 237.8 kPa, w1 = 0.85 | 9.2525
325.11 K, 286.7 kPa, w1 = 0.7 | 9.9621
325.11 K, 373.4 kPa, w1 = 0.7 | 13.2204
325.11 K, 483.2 kPa, w1 = 0.7 | 17.5443
325.11 K, 617.3 kPa, w1 = 0.7 | 23.2823
325.13 K, 167.9 kPa, w1 = 0.65 | 5.518
325.13 K, 220.6 kPa, w1 = 0.65 | 7.3227
325.13 K, 289.1 kPa, w1 = 0.65 | 9.7176
325.13 K, 377.5 kPa, w1 = 0.65 | 12.8959
325.13 K, 484.7 kPa, w1 = 0.65 | 17.1136
325.13 K, 619.9 kPa, w1 = 0.65 | 22.7108
325.17 K, 238.4 kPa, w1 = 0.8 | 8.8968
325.17 K, 312.1 kPa, w1 = 0.8 | 11.8066
325.17 K, 407 kPa, w1 = 0.8 | 15.6681
325.17 K, 526.5 kPa, w1 = 0.8 | 20.7926
325.17 K, 669 kPa, w1 = 0.8 | 27.593
325.17 K, 846.3 kPa, w1 = 0.8 | 36.6175
325.18 K, 181.5 kPa, w1 = 0.8 | 6.704
325.18 K, 192.3 kPa, w1 = 0.9 | 7.7424
325.18 K, 252.4 kPa, w1 = 0.9 | 10.2747
325.18 K, 330.4 kPa, w1 = 0.9 | 13.6351
325.18 K, 430.4 kPa, w1 = 0.9 | 18.0945
325.18 K, 549.6 kPa, w1 = 0.9 | 24.0125
325.18 K, 703.2 kPa, w1 = 0.9 | 31.8661
330.12 K, 156.9 kPa, w1 = 0.75 | 5.446
330.12 K, 205.5 kPa, w1 = 0.75 | 7.2271
330.12 K, 271 kPa, w1 = 0.75 | 9.5908
330.12 K, 354.5 kPa, w1 = 0.75 | 12.7274
330.12 K, 457.3 kPa, w1 = 0.75 | 16.8904
330.12 K, 588.2 kPa, w1 = 0.75 | 22.4145
330.12 K, 750 kPa, w1 = 0.75 | 29.7454
330.12 K, 945.5 kPa, w1 = 0.75 | 39.4741
330.12 K, 981.5 kPa, w1 = 0.85 | 44.7652
330.13 K, 163.7 kPa, w1 = 0.85 | 6.1759
330.13 K, 215.1 kPa, w1 = 0.85 | 8.1958
330.13 K, 282.7 kPa, w1 = 0.85 | 10.876
330.13 K, 369.7 kPa, w1 = 0.85 | 14.4335
330.13 K, 612.7 kPa, w1 = 0.85 | 25.4187
330.13 K, 779.3 kPa, w1 = 0.85 | 33.7323
330.14 K, 476.1 kPa, w1 = 0.85 | 19.1537
330.2 K, 440.7 kPa, w1 = 0.7 | 15.4891
330.2 K, 559.7 kPa, w1 = 0.7 | 20.5552
330.2 K, 717.8 kPa, w1 = 0.7 | 27.2782
330.21 K, 338.1 kPa, w1 = 0.7 | 11.6715
330.21 K, 929.7 kPa, w1 = 0.9 | 43.8273
330.22 K, 153.7 kPa, w1 = 0.9 | 6.0465
330.22 K, 202.2 kPa, w1 = 0.9 | 8.024
330.22 K, 258.3 kPa, w1 = 0.7 | 8.7948
330.22 K, 265.5 kPa, w1 = 0.9 | 10.6483
330.22 K, 347.5 kPa, w1 = 0.9 | 14.131
330.22 K, 452.8 kPa, w1 = 0.9 | 18.7526
330.22 K, 576.5 kPa, w1 = 0.9 | 24.8861
330.22 K, 735.5 kPa, w1 = 0.9 | 33.0255
330.23 K, 145.4 kPa, w1 = 0.65 | 4.6896
330.23 K, 149.5 kPa, w1 = 0.7 | 4.9937
330.23 K, 192.1 kPa, w1 = 0.65 | 6.2233
330.23 K, 252.5 kPa, w1 = 0.65 | 8.2587
330.23 K, 272.1 kPa, w1 = 0.8 | 10.0277
330.23 K, 354.3 kPa, w1 = 0.8 | 13.3074
330.23 K, 463.4 kPa, w1 = 0.8 | 17.6597
330.23 K, 754.4 kPa, w1 = 0.8 | 31.1003
330.23 K, 951.7 kPa, w1 = 0.8 | 41.2719
330.24 K, 157.7 kPa, w1 = 0.8 | 5.6939
330.24 K, 196.7 kPa, w1 = 0.7 | 6.6269
330.24 K, 207.3 kPa, w1 = 0.8 | 7.5562
330.24 K, 330.6 kPa, w1 = 0.65 | 10.9596
330.24 K, 431.5 kPa, w1 = 0.65 | 14.544
330.24 K, 590.5 kPa, w1 = 0.8 | 23.435
330.24 K, 702.3 kPa, w1 = 0.65 | 25.6134
330.25 K, 548.5 kPa, w1 = 0.65 | 19.3004
